Experimental data: ChEMBL document CHEMBL5113371, “Lipolytic enzymes inhibitors: A new way for antibacterial drugs discovery” (Eur J Med Chem, 2021)
In brackets after ≈: the same amount, converted by molar mass.

Columns and labels:
[1] = system: Mycobacterium tuberculosis variant bovis; experiment: Antibacterial activity against VLDL-treated Mycobacterium bovis BCG assessed as level of intrabacterial lipid inclusions profile relative to control; assay type: functional
[2] = system: Mycobacterium tuberculosis H37Rv; experiment: Antibacterial activity against Mycobacterium tuberculosis H37Rv expressing GFP infected in mouse Raw264.7 cells incubated for 5 days by SYTO 60 staining method; assay type: functional
[3] = system: Mycobacterium tuberculosis H37Rv; experiment: Antibacterial activity against Mycobacterium tuberculosis H37Rv expressing GFP incubated for 7 days; assay type: functional, Mycobacterium tuberculosis variant bovis
[4] = Mycobacterium tuberculosis variant bovis, time 5.0 day

| SMILES | MIC50 ([3]; 168 h, time 7 day) [µM] | MIC50 ([2]; 120 h, time 5 day) [µM] | also measured |
| --- | --- | --- | --- |
| COc1nn(-c2cccc(Oc3ccccc3)c2)c(=O)o1 |  |  | Activity [1]: 90% |
| CCCCCCCCCCCCCCCCO[P@]1(=O)OC[C@@H]2COC(=O)C2=C(C)O1 |  |  | MIC50 [2, 4]: NE |
| CCCCCCCCCCCCCCCCOP1(=O)OCCC(C(=O)OC)=C(C)O1 (centres undefined) | 0.5 (≈ 0.223 µg/mL) |  | MIC50 [2, 4]: NE |
| CCCCCCCCCCCC[C@@H]1CC[P@@](=O)(OC)OC(C)=C1C(=O)OC | 40.4 (≈ 16.3 µg/mL) | 4 (≈ 1.61 µg/mL) |  |
| CC(C)COc1nn(-c2ccccc2)c(=O)o1 | > 50 | 17.1 (≈ 4.01 µg/mL) |  |
| CCCCCCOc1nn(-c2ccccc2)c(=O)o1 | 44.6 (≈ 11.7 µg/mL) |  | MIC50 [2, 4]: NE |
| O=c1oc(OCCOCc2ccccc2)nn1-c1ccccc1 | 30.8 (≈ 9.62 µg/mL) |  | MIC50 [2, 4]: NE |
| CCCCCCCCCC[C@@H]1CC[P@@](=O)(OC)OC(C)=C1C(=O)OC |  | 4.5 (≈ 1.69 µg/mL) |  |
| CCCCCCCCCCCC[C@H]1CC[P@@](=O)(OC)OC(C)=C1C(=O)OC | > 100 |  |  |
| CCCCCCCCCC[C@H]1CC[P@@](=O)(OC)OC(C)=C1C(=O)OC | 16.6 (≈ 6.22 µg/mL) | 3.1 (≈ 1.16 µg/mL) |  |
| CC(C)COc1nn(-c2ccc(Oc3ccccc3)cc2)c(=O)o1 | 32 (≈ 10.4 µg/mL) | 8.5 (≈ 2.77 µg/mL) |  |
| CCCCCCCCCCCCCCCCO[P@]1(=O)OC[C@H]2COC(=O)C2=C(C)O1 | 1.7 (≈ 0.756 µg/mL) |  | MIC50 [2, 4]: NE |
| CCCCCCOc1nn(-c2ccc(Oc3ccccc3)cc2)c(=O)o1 | > 50 | 9.5 (≈ 3.37 µg/mL) |  |
| CO[C@H]1/C=C/O[C@@]2(C)Oc3c(C)c(O)c4c(O)c(c(/C=N/N5CCN(C)CC5)c(O)c4c3C2=O)NC(=O)/C(C)=C\C=C\[C@H](C)[C@H](O)[C@@H](C)[C@@H](O)[C@@H](C)[C@H](OC(C)=O)[C@@H]1C [RIFAMPIN] | 0.01 (≈ 0.00823 µg/mL) | 2.9 (≈ 2.39 µg/mL) |  |
| CCCCC[C@H]1CC[P@@](=O)(OC)OC(C)=C1C(=O)OC |  |  | MIC50 ([3]; Mycobacterium tuberculosis variant bovis, time 7.0 day): NE |
| NNC(=O)c1ccncc1 [ISONIAZID] | 1.2 (≈ 0.165 µg/mL) | 1.2 (≈ 0.165 µg/mL) |  |
| O=c1oc(OCCOCc2ccccc2)nn1-c1ccc(Oc2ccccc2)cc1 | > 50 | 3.5 (≈ 1.42 µg/mL) |  |
